Laboratory results from paper PMC10892423 (Pharmaceutics, 2024).
In brackets after ≈: the same amount, converted by molar mass. Where two headings read alike, the source gives them in different places. Values belong to the compound of their own block, whether it stands above or below them.

How the values were obtained:
[1] = tested on: MBL-producing P. aeruginosa clinical isolates; assay: MIC by broth microdilution (CLSI); type: cell-based, Pseudomonas aeruginosa; conditions: for MIC: Pseudomonas aeruginosa
Protocol: The DMSO stock solutions of the test compounds were serially diluted to the desired concentrations in CAMHB. Then, 10 μL of the bacterial suspension (5 × 10^5 colony forming units (CFU)/mL) was combined with 200 μL of DMSO stock solutions of the test compounds in 96-well microtiter plates (1% DMSO, final). After the incubation of the plate at 37 °C for 24 h, bacterial growth was visibly evaluated by monitoring the turbidity of the resulting suspension, and the MICs were determined as the lowest concentrations of the test compounds that inhibited the visible growth of the bacteria.

[2] = tested on: MBL-producing P. aeruginosa static biofilms; assay: Anti-biofilm activity, crystal violet staining; type: cell-based, Pseudomonas aeruginosa; conditions: for Biofilm biomass (OD600): 27 32 mg/L
Text: inhibitor 27 against MBL-producing P. aeruginosa clinical isolates.
1 Biofilm biomass was quantified by crystal violet staining at OD600.2 %-inhibition of biofilm

[3] = tested on: MBL-producing P. aeruginosa clinical isolates; assay: Broth microdilution checkerboard synergy assay (MIC of ATM in combination); type: cell-based, Pseudomonas aeruginosa; conditions: for MIC of ATM, alone or in combination: Table 4; for MIC Value of ATM, alone or in combination with ARMA: Table 2
[4] = target: T1, NDM-1 (Klebsiella pneumoniae, UniProt C7C422); assay: β-lactamase inhibition, imipenem hydrolysis; type: biochemical
T1 construct: purchased RayBiotech, Inc. 230-00554
Text: (§1) Recombinant AmpC from Escherichia coli was produced according to a previously reported protocol. KPC-2 and NDM-1 […] were purchased from LifeSpan Biosciences, Inc. (Lynnwood, WA, USA) (LS-G26598) and RayBiotech, Inc. (Peachtree Corners, GA, USA) (230-00554), respectively. Genes encoding OXA-48 (residues 23–265) and VIM-2 (residues 27–266) were custom-synthesized (Bioneer Inc., Seoul, Republic of Korea) and expressed as previously described. The β-lactamase inhibitory activity of the title compounds was then determined according to the previously reported methods. Briefly, equal volumes (100 μL) of the title compounds (70–0.1 μM in PBS) and diluted enzyme stock were mixed (final concentration 2% of DMSO in 200 μL) in 96-well plates, which were then incubated at 37 °C for 20 min. The incubated mixture was added to each well containing substrates (nitrocefin for AmpC, KPC-2, OXA-48, and VIM-2; and imipenem for NDM-1) of final concentrations of 70 μM for nitrocefin and 100 μM for imipenem. Substrate hydrolysis was monitored at 486 nm (nitrocefin) or 300 nm (imipenem) for 15 min, using a Cytation 5 imaging multimode reader (BioTek Instruments Inc., Winooski, VT, USA). At the plateau level of hydrolysis, the corresponding rates of hydrolysis were compared to those obtained without inhibitors (100%) to determine the percentage of enzyme inhibition at each concentration of the title compounds. The IC50 values of the compounds were derived from sigmoidal dose–response curves, using GraphPad Prism 5 (GraphPad Software, Boston, MA, USA).

[5] = target: T2, KPC-2 (Klebsiella pneumoniae, UniProt Q9F663); assay: β-lactamase inhibition, nitrocefin hydrolysis; type: biochemical
T2 construct: purchased LifeSpan Biosciences, Inc. LS-G26598
Text: as §1

[6] = target: T3, AmpC (Escherichia coli, UniProt P00811); assay: β-lactamase inhibition, nitrocefin hydrolysis; type: biochemical
T3 construct: made in house
Text: as §1

[7] = target: T4, OXA-48 (Klebsiella pneumoniae, UniProt Q6XEC0); assay: β-lactamase inhibition, nitrocefin hydrolysis; type: biochemical
T4 construct: Genes encoding OXA-48 (residues 23–265) and VIM-2 (residues 27–266) were custom-synthesized; made in house
Text: as §1

[8] = target: T5, VIM-2 (Escherichia coli, UniProt Q5U7L7); assay: β-lactamase inhibition, nitrocefin hydrolysis; type: biochemical
T5 construct: Genes encoding OXA-48 (residues 23–265) and VIM-2 (residues 27–266) were custom-synthesized; made in house
Text: as §1

[9] = imipenem substrate, read-out: β-Lactamases, IC50 NDM-1
[10] = nitrocefin substrate, read-out: β-Lactamases, IC50 KPC-2
[11] = nitrocefin substrate, read-out: β-Lactamases, IC50 OXA-48
[12] = nitrocefin substrate, read-out: β-Lactamases, IC50 VIM-2

T2 sequence (Q9F663 25-293, looked up): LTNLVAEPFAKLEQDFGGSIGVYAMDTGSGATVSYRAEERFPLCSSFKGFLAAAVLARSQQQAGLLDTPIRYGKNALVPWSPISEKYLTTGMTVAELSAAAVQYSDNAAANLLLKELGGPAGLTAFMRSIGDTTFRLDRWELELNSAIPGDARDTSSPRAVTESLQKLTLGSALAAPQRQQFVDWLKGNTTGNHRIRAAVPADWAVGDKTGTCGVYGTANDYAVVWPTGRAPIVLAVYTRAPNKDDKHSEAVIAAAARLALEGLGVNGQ
T3 sequence (P00811 20-377): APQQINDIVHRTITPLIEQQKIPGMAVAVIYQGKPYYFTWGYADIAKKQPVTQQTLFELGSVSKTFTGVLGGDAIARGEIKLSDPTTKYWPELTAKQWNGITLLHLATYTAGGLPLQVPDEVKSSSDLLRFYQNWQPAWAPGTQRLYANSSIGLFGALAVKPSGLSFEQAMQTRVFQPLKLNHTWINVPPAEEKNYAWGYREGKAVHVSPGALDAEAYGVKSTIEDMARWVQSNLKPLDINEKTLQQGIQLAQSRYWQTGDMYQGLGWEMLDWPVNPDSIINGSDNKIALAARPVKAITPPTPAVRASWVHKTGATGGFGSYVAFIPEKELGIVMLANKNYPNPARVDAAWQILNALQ
T4 sequence (Q6XEC0 23-265 limits assumed): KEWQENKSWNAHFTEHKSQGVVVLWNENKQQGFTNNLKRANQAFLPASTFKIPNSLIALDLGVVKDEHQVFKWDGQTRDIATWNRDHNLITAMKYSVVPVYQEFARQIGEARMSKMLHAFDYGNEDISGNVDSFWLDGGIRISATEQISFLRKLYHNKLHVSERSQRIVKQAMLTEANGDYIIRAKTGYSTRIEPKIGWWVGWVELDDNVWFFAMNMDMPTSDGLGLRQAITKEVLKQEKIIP
T1 sequence (C7C422 29-270, looked up, species assumed): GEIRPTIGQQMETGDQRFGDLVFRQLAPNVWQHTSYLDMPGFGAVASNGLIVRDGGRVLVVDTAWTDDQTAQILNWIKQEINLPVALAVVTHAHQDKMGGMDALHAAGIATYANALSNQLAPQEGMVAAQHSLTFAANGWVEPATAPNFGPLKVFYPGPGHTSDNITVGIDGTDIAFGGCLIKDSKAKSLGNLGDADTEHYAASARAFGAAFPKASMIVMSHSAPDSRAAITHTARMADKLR

ATM MICs relative to the CLSI antibiotic susceptibility breakpoint (1 mg/L) ([1]; 21 MBL-producing P. aeruginosa strains): 8–64 times higher
MIC ([1]; PA-001, blaNDM): 32 µg/mL (≈ 73.5 µM)
MIC ([1]; PA-002, blaIMP): 64 µg/mL (≈ 147 µM)
MIC ([1]; PA-007, blaNDM): 16 µg/mL (≈ 36.7 µM)
MIC ([1]; PA-008, blaNDM): 16 µg/mL (≈ 36.7 µM)
MIC ([1]; PA-011, blaNDM): 16 µg/mL (≈ 36.7 µM)
MIC ([1]; PA-012, blaNDM): 16 µg/mL (≈ 36.7 µM)
MIC ([1]; PA-016, blaIMP): 64 µg/mL (≈ 147 µM)
MIC ([1]; PA-017, blaNDM): 16 µg/mL (≈ 36.7 µM)
MIC ([1]; PA-019, blaNDM): 16 µg/mL (≈ 36.7 µM)
MIC ([1]; PA-020, blaNDM): 16 µg/mL (≈ 36.7 µM)
MIC ([1]; PA-023, blaNDM): 16 µg/mL (≈ 36.7 µM)
MIC ([1]; PA-025, blaNDM): 16 µg/mL (≈ 36.7 µM)
MIC ([1]; PA-027, blaIMP): 32 µg/mL (≈ 73.5 µM)
MIC ([1]; PA-028, blaNDM): 8 µg/mL (≈ 18.4 µM)
MIC ([1]; PA-029, blaIMP): 64 µg/mL (≈ 147 µM)
MIC ([1]; PA-030, blaIMP): 64 µg/mL (≈ 147 µM)
MIC ([1]; PA-034, blaNDM): 16 µg/mL (≈ 36.7 µM)
MIC ([1]; PA-036, blaNDM): 16 µg/mL (≈ 36.7 µM)
MIC ([1]; PA-038, blaNDM): 16 µg/mL (≈ 36.7 µM)
MIC ([1]; PA-039, blaNDM): 16 µg/mL (≈ 36.7 µM)
MIC ([1]; PA-044, blaNDM): 16 µg/mL (≈ 36.7 µM)
MIC of ATM, alone or in combination ([3]; PA-001, blaNDM): 32 µg/mL
MIC Value of ATM, alone or in combination with ARMA ([3]; PA-002, blaIMP): 64 µg/mL
MIC of ATM, alone or in combination ([3]; PA-002, blaIMP): 64 µg/mL
MIC Value of ATM, alone or in combination with ARMA ([3]; PA-003, blaVIM): 32 µg/mL
MIC of ATM, alone or in combination ([3]; PA-007, blaNDM): 16 µg/mL
MIC of ATM, alone or in combination ([3]; PA-008, blaNDM): 16 µg/mL
MIC of ATM, alone or in combination ([3]; PA-011, blaNDM): 16 µg/mL
MIC of ATM, alone or in combination ([3]; PA-012, blaNDM): 16 µg/mL
MIC of ATM, alone or in combination ([3]; PA-016, blaIMP): 64 µg/mL
MIC of ATM, alone or in combination ([3]; PA-017, blaNDM): 16 µg/mL
MIC of ATM, alone or in combination ([3]; PA-019, blaNDM): 16 µg/mL
MIC of ATM, alone or in combination ([3]; PA-020, blaNDM): 16 µg/mL
MIC of ATM, alone or in combination ([3]; PA-023, blaNDM): 16 µg/mL
MIC Value of ATM, alone or in combination with ARMA ([3]; PA-025, blaNDM): 16 µg/mL
MIC of ATM, alone or in combination ([3]; PA-025, blaNDM): 16 µg/mL
MIC of ATM, alone or in combination ([3]; PA-027, blaIMP): 32 µg/mL
MIC of ATM, alone or in combination ([3]; PA-028, blaNDM): 8 µg/mL
MIC of ATM, alone or in combination ([3]; PA-029, blaIMP): 64 µg/mL
MIC of ATM, alone or in combination ([3]; PA-030, blaIMP): 64 µg/mL
MIC of ATM, alone or in combination ([3]; PA-034, blaNDM): 16 µg/mL
MIC of ATM, alone or in combination ([3]; PA-036, blaNDM): 16 µg/mL
MIC Value of ATM, alone or in combination with ARMA ([3]; PA-038, blaNDM): 16 µg/mL
MIC of ATM, alone or in combination ([3]; PA-038, blaNDM): 16 µg/mL
MIC of ATM, alone or in combination ([3]; PA-039, blaNDM): 16 µg/mL
MIC of ATM, alone or in combination ([3]; PA-044, blaNDM): 16 µg/mL
SMILES: C[C@H]1[C@H](NC(=O)/C(=N\OC(C)(C)C(=O)O)c2csc(N)n2)C(=O)N1S(=O)(=O)O [ATM, aztreonam]
inhibition of biofilm formation ([2]; 1/2 × MIC ATM alone): no significant inhibition of biofilm formation
Biofilm biomass (OD600) ([2]; PA-007, blaNDM, ATM 1/2 MIC (8 mg/L)): 1.03
Biofilm biomass (OD600) ([2]; PA-011, blaNDM, ATM 1/2 MIC (8 mg/L)): 0.51
Biofilm biomass (OD600) ([2]; PA-012, blaNDM, ATM 1/2 MIC (8 mg/L)): 0.23
Biofilm biomass (OD600) ([2]; PA-030, blaIMP, ATM 1/2 MIC (32 mg/L)): 1.84

SMILES: NC(=O)[C@@H]1CC[C@@H]2CN1C(=O)N2OS(=O)(=O)O [AVI, avibactam]
concentration at which ATM-potentiating activity was observed ([3]; four representative MBL-producing P. aeruginosa strains (Table 2)): 128 mg/L

SMILES: O=c1c(OCCN2CC2)c(-c2ccc(F)c(F)c2)oc2cc(O)cc(O)c12 [Compound 14]
IC50 [4]: > 50 µM
IC50 [5]: > 50 µM
IC50 [6]: > 50 µM
IC50 [7]: > 100 µM
IC50 [8]: > 100 µM

SMILES: C[N+](C)(CCOc1c(-c2ccc(F)c(F)c2)oc2cc(O)cc(O)c2c1=O)CC(=O)[O-] [Compound 15]
IC50 [4, 9]: > 50 µM
IC50 [5, 10]: > 50 µM
IC50 [6]: > 50 µM
IC50 [7, 11]: > 100 µM
IC50 [8, 12]: > 100 µM

SMILES: CN1CCN(CCOc2c(-c3ccc(F)c(F)c3)oc3cc(O)cc(O)c3c2=O)CC1 [Compound 16]
IC50 [4, 9]: > 50 µM
IC50 [5, 10]: > 50 µM
IC50 [6]: > 50 µM
IC50 [7, 11]: > 100 µM
IC50 [8, 12]: > 100 µM

SMILES: O=c1c(OCCN2CCNCC2)c(-c2ccc(F)c(F)c2)oc2cc(O)cc(O)c12 [Compound 17]
IC50 [4, 9]: > 50 µM
IC50 [5, 10]: > 50 µM
IC50 [6]: > 50 µM
IC50 [7, 11]: > 100 µM
IC50 [8, 12]: > 100 µM

SMILES: O=c1c(OCCN2CCCC2)c(-c2ccc(F)c(F)c2)oc2cc(O)cc(O)c12 [Compound 18]
IC50 [4, 9]: > 50 µM
IC50 [5, 10]: > 50 µM
IC50 [6]: > 50 µM
IC50 [7, 11]: > 100 µM
IC50 [8, 12]: > 100 µM

SMILES: O=c1c(OCCN2CCCCC2)c(-c2ccc(F)c(F)c2)oc2cc(O)cc(O)c12 [Compound 19]
IC50 [4, 9]: > 50 µM
IC50 [5, 10]: > 50 µM
IC50 [6]: > 50 µM
IC50 [7, 11]: > 100 µM
IC50 [8, 12]: > 100 µM
